Legend:
Water solubility = format: physicochemical; details: for water solubility, in words: summary of table 1
HCT116 cells = test: In-vitro anti-tumor activity, MTT assay, human colon cancer HCT116 cells; format: cell-based; details: HCT-116, 48 h
Experimental: (§1) Anti-Tumor Activity Determination Method
(§2) Preparation of DMEM/F-12 medium: MEM/F-12 medium (Hyclone) was purchased, 500 mL per bottle, 10% fetal bovine serum and 1% streptomycin solution were added in it. That is, 50 mL of fetal bovine serum and 5 mL of streptomycin were added to each flask of the medium. The preparation of the medium was carried out in an ultra-clean workbench and stored in a refrigerator at 4° C.
(§3) Preparation of PBS buffer: Sodium chloride 8 g, potassium chloride 0.2 g, disodium hydrogen phosphate dodecahydrate 2.9 g, potassium dihydrogen phosphate 0.2 g and purified water 800 mL were placed into a 1000 mL conical flask, the mixture was stirred and dissolved to a volume of 1000 mL. After autoclaving, PBS buffer was stored in a refrigerator at 4° C.
(§4) Preparation of MTT solution: 0.5 g MTT dry powder was dissolved in 100 mL PBS buffer. After sterilizing by filtration through a […] filter, it was stored in a refrigerator at −12° C.
(§5) Three kinds of tumor cells were used in the antitumor activity assay of the present invention: human liver cancer cells (HepG2), human leukemia cells (K562) and human colon cancer cells (HCT116).
Activity test using human colon cancer HCT116 cells
The human colon cancer cells (HCT116) were grown in DMEM/F-12 medium supplemented with 10% fetal bovine serum, 1% penicillin/streptomycin and were cultured in an incubator of 5% CO2 at 37° C. The method comprises the following steps:
(1) After counting the cells with a hemocytometer, dilute it to a density of 5×10^4 cells/mL with DMEM/F-12 medium;
(§6) (2) 100 μl cell suspension was added in each well of 96-well plates and incubated at 37° C. for 24 h;
(3) The compound to be tested was diluted to five concentrations: 2 mM, 200 μM, 20 μM, 2 μM, 0.2 μM. Then, 0.5 μL compound of different concentrations was added to each well and incubated at 37° C. for another 48 h;
(4) MTT (5 mg/ml) was added to the well and the plate was further incubated for 4 h at 37° C.;
(§7) (5) Dissolving the cells with DMSO, and the OD values were measured at 490 nm and 630 nm by a microplate reader; […]

K562 cells = test: In-vitro anti-tumor activity, MTT assay, human leukemia K562 cells; format: cell-based; details: 48 h
Experimental: as §1, §3, §4, §5
Activity test using human leukemia K562 cells
The human leukemia cells (K562) were grown in RPMI1640 medium supplemented with 10% fetal bovine serum, 1% penicillin/streptomycin and were cultured in an incubator of 5% CO2 at 37° C.
The method comprises the following steps:
(1) After counting the cells with a hemocytometer, dilute it to a density of 5×10^4 cells/mL with RPMI1640 medium;
(2) 100 μl cell suspension was added in each well of 96-well plates and incubated at 37° C. for 2 h;
(§8) (3) The compound to be tested was diluted to five concentrations: 2 mM, 200 μM, 20 μM, 2 μM, 0.2 μM. Then, 0.5 μL compound of different concentrations was added to the well and incubated at 37° C. for another 48 h;
(§9) (4) MTT (5 mg/ml) was added to each well and the plate was further incubated for 4 h at 37° C.;
(5) Dissolving the cells with DMSO, and the OD values were measured at 570 nm and 630 nm by a microplate reader;
(6) Process the data by calculating the IC50 value based on the OD values.

HepG2 cells = test: In-vitro anti-tumor activity, MTT assay, human liver cancer HepG2 cells; format: cell-based; details: 48 h
Experimental: as §1
as §2, with “low glucose DMEM” for “DMEM/F-12”, “MEM” for “MEM/F-12”, “purchased with low glucose,” for “purchased,”
as §3, §4, §5
Activity Test Using Human Liver Cancer HepG2 Cells
The human liver cancer cells (HepG2) were grown in DMEM medium supplemented with 10% fetal bovine serum, 1% penicillin/streptomycin and were cultured in an incubator of 5% CO2 at 37° C. The method comprises the following steps:
(1) After counting the cells with a hemocytometer, dilute it to a density of 5×10^4 cells/mL with low glucose DMEM medium;
as §6, §8, §9, §7

[1] = tested on: tumor cells (HepG2, K562, HCT116); test: In-vitro anti-tumor activity, summary in words over the three tumor cell lines; format: cell-based, human; details: summary of table 1; for cytotoxic / anti-tumor activity, in words: compared with precursor/parent compound
Text: as §1, §5

Row | Compound | Water solubility (Water solubility) | IC50 (HCT116 cells) [nM] | IC50 (K562 cells) [nM] | IC50 (HepG2 cells) [nM] | water solubility, in words (Water solubility) | cytotoxic / anti-tumor activity, in words [1] | activity compared with positive reference substance camptothecin [1]
1 | CC[C@@]1(O)C(=O)OCc2c1cc1n(c2=O)Cc2cc3ccccc3nc2-1 [CPT, camptothecin, reference compound] | insoluble | 100 to 1000 | 100 to 1000 | 100 to 1000 |  |  | 
2 | COc1ccc(CN2C(=O)C(=O)c3cc(-c4ccc(O)c(CN(C)C)c4)ccc32)cc1 [Compound 1] | >10 g/100 g | 1000 to 10000 | 1000 to 10000 | 1000 to 10000 | obviously improved | still retains certain cytotoxic activity | 
3 | COC(=O)/C=C/c1ccc2c(c1)C(=O)C(=O)N2Cc1ccc(O)c(CN(C)C)c1 [Compound 2] | >10 g/100 g | < 10 | < 10 | 1000 to 10000 | obviously improved | greatly improved | superior

From patent publication US10703717B2, “Water-soluble isatin derivative, and manufacturing method and application thereof” (TIANJIN UNIVERSITY OF SCIENCE & TECHNOLOGY, priority 2016, dated 2020)
